Results on 23 molecules are retold here after US7981903B2, “2-[2-{phenylamino}-1H-pyrrolo[2,3-D]pyrimidin-4-yl)amino] benzamide derivatives as IGF-1R inhibitors for the treatment of cancer” (GlaxoSmithKline LLC, priority 2007, dated 2011).

Assay [1] has as its target T1, NIH-3T3 cells overexpressing human IGF-1R (Homo sapiens, UniProt P08069).
T1 construct: expressed in transfected cells; host or cells: NIH-3T3 (mouse fibroblasts)
Description: IGF-1R cellular autophosphorylation (DELFIA). In kind it is cell-based. The essentials:
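Receptor autophosphorylation measured by DELFIA, capturing IGF-1R or IRβ and detecting with europium anti-pTyr, reported as percent of IGF-1- or insulin-stimulated signal. Compounds (30 uM to 1.5 nM) added 2 h before ligand, then 15 min stimulation (IGF-1 30 ng/ml or insulin 3 ug/ml).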

For the next assay, the target named is T2, human IGF1R (hIGF1R) (Homo sapiens, UniProt P08069).
T2 construct: containing amino acid residues 957-1367 of human IGF1R; made in house; host or cells: Sf9 cells (baculovirus)
T2 sequence (P08069 957-1367): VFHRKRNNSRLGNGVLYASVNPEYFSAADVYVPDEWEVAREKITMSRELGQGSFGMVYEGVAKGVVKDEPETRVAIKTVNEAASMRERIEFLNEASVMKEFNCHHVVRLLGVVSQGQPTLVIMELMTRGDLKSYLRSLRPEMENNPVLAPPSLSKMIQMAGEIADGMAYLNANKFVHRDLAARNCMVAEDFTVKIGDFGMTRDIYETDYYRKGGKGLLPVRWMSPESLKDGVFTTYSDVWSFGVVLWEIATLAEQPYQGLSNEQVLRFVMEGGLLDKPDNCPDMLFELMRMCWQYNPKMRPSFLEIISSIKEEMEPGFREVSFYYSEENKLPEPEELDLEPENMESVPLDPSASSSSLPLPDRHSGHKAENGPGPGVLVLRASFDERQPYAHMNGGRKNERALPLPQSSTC
The experiment in a line: TR-FRET kinase assay of purified hIGF1R. Particulars: activated hIGF1R 0.5 nM, 10 μM ATP, values given as pIC50 category, read-out: IGF-1R pIC50 (converted). In kind it is biochemical.

SMILES strings stand for the structures.

T1 sequence (P08069 31-1367): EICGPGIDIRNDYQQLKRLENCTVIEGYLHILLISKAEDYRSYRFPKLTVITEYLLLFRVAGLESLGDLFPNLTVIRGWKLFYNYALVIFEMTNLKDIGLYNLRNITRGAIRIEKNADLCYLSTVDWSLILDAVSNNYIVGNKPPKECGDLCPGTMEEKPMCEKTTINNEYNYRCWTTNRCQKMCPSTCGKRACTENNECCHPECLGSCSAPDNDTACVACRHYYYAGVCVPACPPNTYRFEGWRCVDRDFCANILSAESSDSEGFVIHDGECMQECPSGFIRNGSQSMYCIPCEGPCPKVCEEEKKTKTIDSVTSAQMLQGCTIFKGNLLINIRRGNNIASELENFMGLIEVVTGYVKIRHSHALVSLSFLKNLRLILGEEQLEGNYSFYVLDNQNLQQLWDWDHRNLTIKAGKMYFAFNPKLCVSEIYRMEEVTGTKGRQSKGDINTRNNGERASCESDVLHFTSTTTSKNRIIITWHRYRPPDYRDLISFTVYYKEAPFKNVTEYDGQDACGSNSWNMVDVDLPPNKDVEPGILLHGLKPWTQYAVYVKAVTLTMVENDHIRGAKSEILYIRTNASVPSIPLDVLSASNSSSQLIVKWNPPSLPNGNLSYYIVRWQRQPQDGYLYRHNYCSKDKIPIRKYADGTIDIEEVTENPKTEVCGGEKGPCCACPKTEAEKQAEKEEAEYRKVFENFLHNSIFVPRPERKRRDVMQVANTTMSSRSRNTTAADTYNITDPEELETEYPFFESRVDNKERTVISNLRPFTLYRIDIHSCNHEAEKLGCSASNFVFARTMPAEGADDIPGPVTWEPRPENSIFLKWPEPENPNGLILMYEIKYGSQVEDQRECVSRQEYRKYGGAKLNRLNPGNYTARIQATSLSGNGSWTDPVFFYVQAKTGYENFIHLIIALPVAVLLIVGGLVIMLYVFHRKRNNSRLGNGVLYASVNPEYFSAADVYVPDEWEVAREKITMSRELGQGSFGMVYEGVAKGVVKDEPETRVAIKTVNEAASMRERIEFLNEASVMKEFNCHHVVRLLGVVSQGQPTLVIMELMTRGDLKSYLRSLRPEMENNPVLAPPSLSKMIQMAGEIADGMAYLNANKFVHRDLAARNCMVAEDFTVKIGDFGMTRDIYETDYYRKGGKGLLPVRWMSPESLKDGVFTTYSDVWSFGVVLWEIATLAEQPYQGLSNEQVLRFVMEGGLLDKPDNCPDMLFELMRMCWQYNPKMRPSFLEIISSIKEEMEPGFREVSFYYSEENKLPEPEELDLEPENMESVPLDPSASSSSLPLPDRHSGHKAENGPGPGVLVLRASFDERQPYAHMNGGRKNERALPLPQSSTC

In the case of `COc1cc2c(cc1Nc1nc(Nc3cccc(F)c3C(N)=O)c3cc[nH]c3n1)CN(C)CC2` [Example 121, 2-fluoro-6-[(2-{[2-methyl-6-(methyloxy)-1,2,3,4-tetrahydro-7-isoquinolinyl]amino}-1H-pyrrolo[2,3-d]pyrimidin-4-yl)amino]benzamide], the IC50 was 100 to 500 nM in assay [1] and 5.01 to 200 nM at human IGF1R (hIGF1R).
Take `CCCN(CCC)[C@@H](C)C(=O)N1CCc2cc(OC)c(Nc3nc(Nc4cccc(F)c4C(N)=O)c4cc[nH]c4n3)cc21` [Example 192, 2-[(2-{[1-(N,N-dipropyl-L-alanyl)-5-(methyloxy)-2,3-dihydro-1H-indol-6-yl]amino}-1H-pyrrolo[2,3-d]pyrimidin-4-yl)amino]-6-fluorobenzamide]: the IC50 in assay [1] is less than 100 nM; on human IGF1R (hIGF1R) it was 5.01 to 200 nM.
Turning to `CCNC(=O)c1c(F)cc(F)cc1Nc1nc(Nc2cc3c(cc2OC)CCCN3C(=O)CN(C)C)nc2[nH]ccc12` [Example 180, 2-[(2-{[1-(N,N-dimethylglycyl)-6-(methyloxy)-1,2,3,4-tetrahydro-7-quinolinyl]amino}-1H-pyrrolo[2,3-d]pyrimidin-4-yl)amino]-N-ethyl-4,6-difluorobenzamide], the IC50 in assay [1] is less than 100 nM; at human IGF1R (hIGF1R), 0.251 to 1 nM.
On to `CCC(C)N1CCc2cc(OC)c(Nc3nc(Nc4cccc(F)c4C(=O)NC)c4cc[nH]c4n3)cc2C1` (stereo not shown) [Example 238, 2-fluoro-N-methyl-6-[(2-{[6-(methyloxy)-2-(1-methylpropyl)-1,2,3,4-tetrahydro-7-isoquinolinyl]amino}-1H-pyrrolo[2,3-d]pyrimidin-4-yl)amino]benzamide], for which the figures for the IC50 (in assay [1]; on human IGF1R (hIGF1R)) were greater than 500 nM and 5.01 to 200 nM, respectively.
For the molecule `CCCN(C)CC(=O)N1CCc2cc(OC)c(Nc3nc(Nc4cccc(F)c4C(N)=O)c4cc[nH]c4n3)cc21` [Example 168, 2-fluoro-6-[(2-{[5-(methyloxy)-1-(N-methyl-N-propylglycyl)-2,3-dihydro-1H-indol-6-yl]amino}-1H-pyrrolo[2,3-d]pyrimidin-4-yl)amino]benzamide], the IC50 in assay [1] is less than 100 nM; on human IGF1R (hIGF1R), 0.251 to 1 nM.
As for `COc1cc2c(cc1Nc1nc(Nc3ccc(F)c(F)c3C(=O)NC(C)C)c3cc[nH]c3n1)N(C(=O)CN(C)C)CC2` [Example 161, 6-[(2-{[1-(N,N-dimethylglycyl)-5-(methyloxy)-2,3-dihydro-1H-indol-6-yl]amino}-1H-pyrrolo[2,3-d]pyrimidin-4-yl)amino]-2,3-difluoro-N-(1-methylethyl)benzamide], the results for the IC50 (in assay [1]; at human IGF1R (hIGF1R)) were 100 to 500 nM and 5.01 to 200 nM, respectively.
Turning to `CNC(=O)c1c(F)cccc1Nc1nc(Nc2cc3c(cc2OC)CCN3C(=O)CN(C)C)nc2[nH]cc(C)c12` [Example 258, 2-[(2-{[1-(N,N-dimethylglycyl)-5-(methyloxy)-2,3-dihydro-1H-indol-6-yl]amino}-5-methyl-1H-pyrrolo[2,3-d]pyrimidin-4-yl)amino]-6-fluoro-N-methylbenzamide], the values for the IC50 (in assay [1]; at human IGF1R (hIGF1R)) were 100 to 500 nM and 0.251 to 1 nM, respectively.
On to `COc1cc2c(cc1Nc1nc(Nc3cc(Cl)cc(F)c3C(N)=O)c3cc[nH]c3n1)N(C(=O)CN1CCCC1)CC2` [Example 175, 4-chloro-2-fluoro-6-[(2-{[5-(methyloxy)-1-(1-pyrrolidinylacetyl)-2,3-dihydro-1H-indol-6-yl]amino}-1H-pyrrolo[2,3-d]pyrimidin-4-yl)amino]benzamide], for which the IC50 in assay [1] was less than 100 nM; at human IGF1R (hIGF1R) it was 0.251 to 1 nM.
`COc1cc2c(cc1Nc1nc(Nc3cccc(F)c3C(N)=O)c3cc[nH]c3n1)CN(C(=O)CCN(C)C)CC2` [Example 230, 2-[(2-{[2-(N,N-dimethyl-β-alanyl)-6-(methyloxy)-1,2,3,4-tetrahydro-7-isoquinolinyl]amino}-1H-pyrrolo[2,3-d]pyrimidin-4-yl)amino]-6-fluorobenzamide]: the IC50 in assay [1] was greater than 500 nM; on human IGF1R (hIGF1R), 5.01 to 200 nM.
For `COc1cc(N2CCCN(C(C)C)CC2)ccc1Nc1nc(Nc2cccc(F)c2C(N)=O)c2cc[nH]c2n1` [Example 208, 2-fluoro-6-[(2-{[4-[4-(1-methylethyl)hexahydro-1H-1,4-diazepin-1-yl]-2-(methyloxy)phenyl]amino}-1H-pyrrolo[2,3-d]pyrimidin-4-yl)amino]benzamide], in that order: 100 to 500 nM and 5.01 to 200 nM.
Consider `COc1cc2c(cc1Nc1nc(Nc3cc(F)cc(F)c3C(N)=O)c3cc[nH]c3n1)N(C(=O)CN(C)C)CC2` [Example 189, 2-[(2-{[1-(N,N-dimethylglycyl)-5-(methyloxy)-2,3-dihydro-1H-indol-6-yl]amino}-1H-pyrrolo[2,3-d]pyrimidin-4-yl)amino]-4,6-difluorobenzamide], for which the IC50 in assay [1] is less than 100 nM; on human IGF1R (hIGF1R), 0.251 to 1 nM.
Turning to `CNC(=O)c1c(F)cc(F)cc1Nc1nc(Nc2cc3c(cc2OC)CCCN3C(=O)CN2CCCC2)nc2[nH]ccc12` [Example 221, 2,4-difluoro-N-methyl-6-[(2-{[6-(methyloxy)-1-(1-pyrrolidinylacetyl)-1,2,3,4-tetrahydro-7-quinolinyl]amino}-1H-pyrrolo[2,3-d]pyrimidin-4-yl)amino]benzamide], the IC50 in assay [1] is less than 100 nM; at human IGF1R (hIGF1R) it was 0.251 to 1 nM.
As to `CNC(=O)c1c(F)cc(F)cc1Nc1nc(Nc2cc3c(cc2OC)CCCN3C(=O)CN(C)C)nc2[nH]ccc12` [Example 179, 2-[(2-{[1-(N,N-dimethylglycyl)-6-(methyloxy)-1,2,3,4-tetrahydro-7-quinolinyl]amino}-1H-pyrrolo[2,3-d]pyrimidin-4-yl)amino]-4,6-difluoro-N-methylbenzamide], the figures for the IC50 (in assay [1]; on human IGF1R (hIGF1R)) were less than 100 nM and 0.251 to 1 nM, respectively.
`COc1cc2c(cc1Nc1nc(Nc3cccc(F)c3C(N)=O)c3cc[nH]c3n1)NCC2` [Example 140, 2-fluoro-6-[(2-{[5-(methyloxy)-2,3-dihydro-1H-indol-6-yl]amino}-1H-pyrrolo[2,3-d]pyrimidin-4-yl)amino]benzamide]: the IC50 was greater than 500 nM in assay [1] and 5.01 to 200 nM at human IGF1R (hIGF1R).
For `COc1cc(N2CCOC[C@@H]2C)ccc1Nc1nc(Nc2cc(F)ccc2C(N)=O)c2cc[nH]c2n1` [Example 84, 4-fluoro-2-[(2-{[4-[(3S)-3-methyl-4-morpholinyl]-2-(methyloxy)phenyl]amino}-1H-pyrrolo[2,3-d]pyrimidin-4-yl)amino]benzamide], the values for the IC50 (in assay [1]; at human IGF1R (hIGF1R)) were less than 100 nM and 0.251 to 1 nM, respectively.
As for `CNC(=O)c1c(F)cccc1Nc1nc(Nc2cc3c(cc2OC)CCN3C(=O)COC)nc2[nH]ccc12` [Example 150, 2-fluoro-N-methyl-6-{[2-({5-(methyloxy)-1-[(methyloxy)acetyl]-2,3-dihydro-1H-indol-6-yl}amino)-1H-pyrrolo[2,3-d]pyrimidin-4-yl]amino}benzamide], the IC50 is greater than 500 nM in assay [1] and 5.01 to 200 nM at human IGF1R (hIGF1R).
With `COc1cc2c(cc1Nc1nc(Nc3cccc(F)c3C(N)=O)c3cc[nH]c3n1)N(C(=O)N(C)C)CC2` [Example 146, 6-[(4-{[2-(aminocarbonyl)-3-fluorophenyl]amino}-1H-pyrrolo[2,3-d]pyrimidin-2-yl)amino]-N,N-dimethyl-5-(methyloxy)-2,3-dihydro-1H-indole-1-carboxamide], the IC50 is greater than 500 nM in assay [1] and 5.01 to 200 nM on human IGF1R (hIGF1R).
`COc1cc2c(cc1Nc1nc(Nc3cccc(F)c3C(N)=O)c3cc[nH]c3n1)N(C(=O)CN(C)C)CCC2` [Example 210, 2-[(2-{[1-(N,N-dimethylglycyl)-6-(methyloxy)-1,2,3,4-tetrahydro-7-quinolinyl]amino}-1H-pyrrolo[2,3-d]pyrimidin-4-yl)amino]-6-fluorobenzamide]: the IC50 in assay [1] was less than 100 nM; at human IGF1R (hIGF1R), 0.251 to 1 nM.
In the case of `CNC(=O)c1c(F)cccc1Nc1nc(Nc2cc3c(cc2OC)CCN3C(C)=O)nc2[nH]ccc12` [Example 135, 2-[(2-{[1-acetyl-5-(methyloxy)-2,3-dihydro-1H-indol-6-yl]amino}-1H-pyrrolo[2,3-d]pyrimidin-4-yl)amino]-6-fluoro-N-methylbenzamide], the IC50 in assay [1] was greater than 500 nM; at human IGF1R (hIGF1R) it was 5.01 to 200 nM.
Regarding `COc1cc2c(cc1Nc1nc(Nc3cc(F)cc(F)c3C(N)=O)c3cc[nH]c3n1)N(C(=O)CN1CCCC1)CCC2` [Example 219, 2,4-difluoro-6-[(2-{[6-(methyloxy)-1-(1-pyrrolidinylacetyl)-1,2,3,4-tetrahydro-7-quinolinyl]amino}-1H-pyrrolo[2,3-d]pyrimidin-4-yl)amino]benzamide], the values for the IC50 (in assay [1]; at human IGF1R (hIGF1R)) were less than 100 nM and 0.251 to 1 nM, respectively.
For the molecule `CCNC(=O)c1c(F)cc(F)cc1Nc1nc(Nc2cc3c(cc2OC)CCN3C(=O)CN(C)C)nc2[nH]ccc12` [Example 151, 2-[(2-{[1-(N,N-dimethylglycyl)-5-(methyloxy)-2,3-dihydro-1H-indol-6-yl]amino}-1H-pyrrolo[2,3-d]pyrimidin-4-yl)amino]-N-ethyl-4,6-difluorobenzamide], the IC50 in assay [1] was 100 to 500 nM; at human IGF1R (hIGF1R), 0.251 to 1 nM.
As to `COc1cc2c(cc1Nc1nc(Nc3cccc(F)c3C(N)=O)c3cc[nH]c3n1)CN(C(=O)CCN1CCOCC1)CC2` [Example 231, 2-fluoro-6-{[2-({6-(methyloxy)-2-[3-(4-morpholinyl)propanoyl]-1,2,3,4-tetrahydro-7-isoquinolinyl}amino)-1H-pyrrolo[2,3-d]pyrimidin-4-yl]amino}benzamide], the IC50 in assay [1] is 100 to 500 nM; on human IGF1R (hIGF1R) it was 5.01 to 200 nM.
For `CN(C)CC(=O)Nc1ccc(F)c(Nc2nc(Nc3ccccc3C(N)=O)c3cc[nH]c3n2)c1` [Example 17, 2-{[2-({5-[(N,N-dimethylglycyl)amino]-2-fluorophenyl}amino)-1H-pyrrolo[2,3-d]pyrimidin-4-yl]amino}benzamide], the IC50 in assay [1] was less than 100 nM; at human IGF1R (hIGF1R) it was 0.251 to 1 nM.
